From US9434725B2, “5-azaindazole compounds and methods of use” (priority 2012, dated 2016)
Counter-ions that a name gives are not always drawn. Like-named read-outs stand apart in the source and are kept apart here.

Assays:
[1] = molecular target: PIM3 (Homo sapiens (Human), UniProt Q86V86); assay: Pim kinase binding activity, Caliper LC3000 microfluidic peptide phosphorylation assay, PIM3; type: biochemical; settings: 10 μM ATP, 90 min, room temperature; read-out: PIM3 LC3K (KI)
Summary of the method: (§1)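 Pim-specific fluorescent peptide phosphorylated in 10 mM HEPES pH 7.2, 10 mM MgCl2, 0.01% Tween 20, 2 mM DTT for 90 min at room temperature, then stopped with EDTA. Product and substrate separated by microfluidic mobility shift; Ki derived from substrate conversion.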

[2] = tested on: MM1.S (multiple myeloma) cells; assay: In vitro cell proliferation potency assay (Cell Titer Glo), MM1.S cells; type: cell-based; settings: read-out: Prolif MM1S ATP (EC50)
Description: (§2) BaF3 parental line was obtained from the DSMZ repository. BaF3 lines transfected with PIM1 or PIM2 were generated. Mouse IL-3 was purchased from R&D Systems. G418 was purchased from Clontech. Media for BaF3 parental line contained RPMI, 10% FBS, 2 mM L-Glutamine, 2 ng/mL mIL-3. Media for BaF3 PIM1 & 2 lines contained RPMI, 10% FBS, 2 mM L-Glutamine, […]. Media for MM1.S (multiple myeloma cells) line contained RPMI, 10% FBS, 2 mM L-Glutamine.
(§3) BaF3, a murine interleukin-3 dependent pro-B cell line, parental cells, BaF3 PIM1 cells, BaF3 PIM2 cells, and MM1.S (multiple myeloma) cells were seeded at 2 k/well, 5 k/well, 5 k/well, and 10 k/well respectively, in a 384-well plate, at 45 μL/well. Test compound was added at 5 μL/well. BaF3 cells (parental and transfected) were incubated overnight, while MM1.S cells were incubated for 72 hours at 37° C., 5% CO2. CELL TITER GLO® Reagent (Promega) was added at 50 μL/well, the plates were incubated for 30 minutes, and their luminescence read on an HT Analyst. IC50/EC50 values for the test compound were calculated.

[3] = molecular target: PIM2 (Homo sapiens (Human), UniProt Q9P1W9); assay: Pim kinase binding activity, Caliper LC3000 microfluidic peptide phosphorylation assay, PIM2; type: biochemical; settings: 10 μM ATP, 90 min, room temperature; read-out: PIM2 LC3K (KI)
Summary of the method: as §1

[4] = molecular target: PIM1 (Homo sapiens (Human), UniProt P11309); assay: biochemical; type: biochemical; settings: 10 μM ATP, 90 min, room temperature; read-out: PIM1 LC3K (KI)
Summary of the method: as §1

[5] = tested on: BaF3 PIM1 cells; assay: In vitro cell proliferation potency assay (Cell Titer Glo), BaF3 PIM1 cells; type: cell-based, murine; settings: read-out: Prolif BaF3_PIM 1 (IC50)
Description: as §2, §3

[6] = Homo sapiens, MM1.S cells, 72 hours
[7] = Mus musculus, BaF3, BaF3 cells transfected with PIM1, incubated overnight
[8] = BaF3 cells transfected with PIM1, incubated overnight
[9] = Homo sapiens, MM1.S, 72 h, MM1.S cells, 72 hours

Sequence of PIM2 (Q9P1W9 whole entry): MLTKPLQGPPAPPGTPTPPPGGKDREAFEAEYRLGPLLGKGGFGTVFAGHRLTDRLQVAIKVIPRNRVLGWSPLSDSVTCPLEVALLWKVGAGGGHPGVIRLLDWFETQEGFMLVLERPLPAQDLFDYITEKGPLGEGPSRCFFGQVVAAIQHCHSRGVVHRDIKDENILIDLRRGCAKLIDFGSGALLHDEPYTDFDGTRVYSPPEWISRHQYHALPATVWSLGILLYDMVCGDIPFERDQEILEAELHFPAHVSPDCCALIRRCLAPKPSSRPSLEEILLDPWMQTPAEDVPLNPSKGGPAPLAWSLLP
Sequence of PIM1 (P11309 whole entry): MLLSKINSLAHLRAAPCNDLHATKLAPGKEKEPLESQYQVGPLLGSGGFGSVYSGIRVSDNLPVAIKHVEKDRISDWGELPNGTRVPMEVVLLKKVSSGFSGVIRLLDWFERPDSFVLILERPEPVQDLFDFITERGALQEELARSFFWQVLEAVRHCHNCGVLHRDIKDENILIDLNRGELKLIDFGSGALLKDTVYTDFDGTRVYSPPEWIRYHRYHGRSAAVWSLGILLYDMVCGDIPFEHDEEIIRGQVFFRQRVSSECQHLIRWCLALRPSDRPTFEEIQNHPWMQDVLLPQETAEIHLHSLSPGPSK

Structure (SMILES) | Ki [1] [nM] | EC50 [2, 6] [nM] | Ki [3] [nM] | Ki [4] [nM] | IC50 [5, 7] [nM] | EC50 ([2]; MM1.S cells, 72 hours) [nM] | IC50 [5, 8] [nM] | EC50 [2, 9] [nM] | EC50 ([2]; Homo sapiens, MM1.S, 72 h) [nM]
OCc1cncc(-c2cc3c(cn2)cnn3-c2cccc(N3CCNCC3)n2)n1 [Compound 273, (6-(1-(6-(piperazin-1-yl)pyridin-2-yl)-1H-pyrazolo[4,3-c]pyridin-6-yl)pyrazin-2-yl)methanol dihydrochloride] | 0.036 | – | 2.63 | 0.117 | 629 | – | – | – | 5500
OCCOc1cncc(-c2cc3c(cn2)cnn3-c2cccc(N3CCNCC3)n2)n1 [Compound 278, 2-((6-(1-(6-(piperazin-1-yl)pyridin-2-yl)-1H-pyrazolo[4,3-c]pyridin-6-yl)pyrazin-2-yl)oxy)ethanol dihydrochloride] | 0.105 | – | 2.62 | 0.163 | 261 | – | – | – | > 6200
CS(=O)(=O)CCn1cc(-c2cc3c(cn2)cnn3-c2cccc(N3CCCNCC3)n2)cn1 [Compound 157, 1-(6-(1,4-Diazepan-1-yl)pyridin-2-yl)-6-(1-(2-(methylsulfonyl)ethyl)-1H-pyrazol-4-yl)-1H-pyrazolo[4,3-c]pyridine] | 0.055 | – | 6.2 | 0.087 | 2800 | – | – | 4000 | –
Cc1ccc(-n2ncc3cnc(-c4cnn(CC(F)(F)F)c4)cc32)nc1N1CCNC[C@@H](O)C1 (single isomer, unassigned) [Compound 260] | 0.127 | – | 1.54 | 0.047 | 380 | – | – | – | 852
N[C@H]1CCC[C@@H]1Nc1cncc(-c2cc3c(cn2)cnn3-c2ccccn2)n1 [Compound 307, (1S,2S)-N1-(6-(1-(pyridin-2-yl)-1H-pyrazolo[4,3-c]pyridin-6-yl)pyrazin-2-yl)cyclopentane-1,2-diamine] | 0.098 | – | 2.97 | 0.12 | 640 | – | – | 2900 | –
OC1CN(c2cncc(-c3cc4c(cn3)cnn4-c3cccc(N4CCNCC4)n3)n2)C1 [Compound 281, 1-(6-(1-(6-(piperazin-1-yl)pyridin-2-yl)-1H-pyrazolo[4,3-c]pyridin-6-yl)pyrazin-2-yl)azetidin-3-ol] | 0.064 | – | 3.37 | 0.048 | 695 | – | – | 16000 | –
Cc1cncc(-c2cc3c(cn2)cnn3-c2cccc(OC3CCCC(N)C3)n2)n1 (centres unmarked) [Compound 311, 3-(6-(6-(6-methylpyrazin-2-yl)-1H-pyrazolo[4,3-c]pyridin-1-yl)pyridin-2-yloxy)cyclohexanamine] | 0.036 | – | – | 0.069 | 1000 | – | – | 5500 | –
FC(F)c1cncc(-c2cc3c(cn2)cnn3-c2cccc(N3CCNCC3)n2)n1 [Compound 279, 6-(6-(difluoromethyl)pyrazin-2-yl)-1-(6-(piperazin-1-yl)pyridin-2-yl)-1H-pyrazolo[4,3-c]pyridine trifluoroacetate] | 0.132 | 2300 | 3.99 | 0.229 | 622 | – | – | – | –
Cc1cncc(-c2cc3c(cn2)cnn3-c2cccc(C3CNCCC3(F)F)n2)n1 (single isomer, unassigned) [Compound 271] | – | – | 2.45 | 0.189 | – | 4900 | 1400 | – | –
c1cc(N2CCNCC2)nc(-n2ncc3cnc(-c4cncc(N5CCC5)n4)cc32)c1 [Compound 284, 6-(6-(azetidin-1-yl)pyrazin-2-yl)-1-(6-(piperazin-1-yl)pyridin-2-yl)-1H-pyrazolo[4,3-c]pyridine] | 0.025 | – | 1.83 | 0.02 | 385 | – | – | 4600 | –
C=Cc1cncc(-c2cc3c(cn2)cnn3-c2cccc(N3CCNCC3)n2)n1 [Compound 274, 1-(6-(piperazin-1-yl)pyridin-2-yl)-6-(6-vinylpyrazin-2-yl)-1H-pyrazolo[4,3-c]pyridine dihydrochloride] | 0.098 | – | 4.26 | 0.133 | 749 | – | – | – | 5100
Cc1cncc(-c2cc3c(cn2)cnn3-c2cccc(C3(F)CCCNC3)n2)n1 (centres unmarked) [Compound 294, 1-(6-(3-fluoropiperidin-3-yl)pyridin-2-yl)-6-(6-methylpyrazin-2-yl)-1H-pyrazolo[4,3-c]pyridine] | – | – | 2.37 | 0.514 | 772 | – | – | 9300 | –
CCNc1cncc(-c2cc3c(cn2)cnn3-c2cccc(N3CCNCC3)n2)n1 [Compound 285, N-ethyl-6-(1-(6-(piperazin-1-yl)pyridin-2-yl)-1H-pyrazolo[4,3-c]pyridin-6-yl)pyrazin-2-amine] | – | – | 2.28 | 0.044 | 112 | – | – | 6400 | –

Further compounds by falling Ki [3], results first:

Ki [1] [nM] | EC50 [2, 6] [nM] | Ki [3] [nM] | Ki [4] [nM] | IC50 [5, 7] [nM] | EC50 ([2]; MM1.S cells, 72 hours) [nM] | IC50 [5, 8] [nM] | EC50 [2, 9] [nM] | Structure (SMILES) | EC50 ([2]; Homo sapiens, MM1.S, 72 h) [nM]
0.057 | – | 1.72 | 0.136 | 2000 | – | – | 696 | C#Cc1cncc(-c2cc3c(cn2)cnn3-c2cccc(N3CCNCC3)n2)n1 [Compound 315, 6-(6-ethynylpyrazin-2-yl)-1-(6-(piperazin-1-yl)pyridin-2-yl)-1H-pyrazolo[4,3-c]pyridine] | –
0.112 | 7200 | 1.48 | 0.061 | 976 | – | – | – | Cc1cncc(-c2cc3c(cn2)cnn3-c2cccc(N3CCCC4(CNC4)C3)n2)n1 [Compound 293, 1-(6-(2,6-diazaspiro[3.5]nonan-6-yl)pyridin-2-yl)-6-(6-methylpyrazin-2-yl)-1H-pyrazolo[4,3-c]pyndine] | –
0.144 | 10900 | 1.43 | 0.256 | 425 | – | – | – | COC1(c2cccc(-n3ncc4cnc(-c5cncc(C)n5)cc43)n2)CCCNC1 (centres unmarked) [Compound 295, 1-(6-(3-methoxypiperidin-3-yl)pyridin-2-yl)-6-(6-methylpyrazin-2-yl)-1H-pyrazolo[4,3-c]pyridine] | –
0.048 | – | 0.678 | 0.058 | 240 | – | – | 4700 | CCc1cncc(-c2cc3c(cn2)cnn3-c2cccc(N3CCNCC3)n2)n1 [Compound 149, 6-(6-ethylpyrazin-2-yl)-1-(6-piperazin-1-yl-2-pyridyl)pyrazolo[4,3-c]pyridine] | –
0.018 | 4000 | 0.446 | 0.034 | 781 | – | – | – | OCCCc1cncc(-c2cc3c(cn2)cnn3-c2cccc(N3CCNCC3)n2)n1 [Compound 301, 3-(6-(1-(6-(piperazin-1-yl)pyridin-2-yl)-1H-pyrazolo[4,3-c]pyridin-6-yl)pyrazin-2-yl)propan-1-ol] | –
0.054 | 574 | 0.394 | 0.06 | 212 | – | – | – | Cc1cncc(-c2cc3c(cn2)cnn3-c2ccc(CO)c(N3CCC[C@H](N)C3)n2)n1 [Compound 218, (S)-(2-(3-aminopiperidin-1-yl)-6-(6-(6-methylpyrazin-2-yl)-1H-pyrazolo[4,3-c]pyridin-1-yl)pyridin-3-yl)methanol] | –
0.02 | 1100 | 0.286 | 0.068 | 490 | – | – | – | Cc1cncc(-c2cc3c(cn2)cnn3-c2ccc(C#N)c(N3CCC[C@H](N)C3)n2)n1 [Compound 201, (S)-2-(3-aminopiperidin-1-yl)-6-(6-(6-methylpyrazin-2-yl)-1H-pyrazolo[4,3-c]pyridin-1-yl)nicotinonitrile] | –
– | – | 0.234 | 0.067 | – | 1200 | 194 | – | Cc1cncc(-c2cc3c(cn2)cnn3-c2cccc(C3CNCCC3(F)F)n2)n1 (single isomer, unassigned) [Compound 272] | –
0.014 | – | 0.142 | 0.018 | 278 | – | – | 1200 | Cc1cncc(-c2cc3c(cn2)cnn3-c2ccc(C)c(N3CCC[C@H](N)C3)n2)n1 [Compound 205, (S)-1-(3-methyl-6-(6-(6-methylpyrazin-2-yl)-1H-pyrazolo[4,3-c]pyridin-1-yl)pyridin-2-yl)piperidin-3-amine] | –
0.013 | 508 | 0.134 | 0.0212 | 220 | – | – | – | COc1ccc(-n2ncc3cnc(-c4cncc(C)n4)cc32)nc1N1CCC[C@H](N)C1 [Compound 186, (S)-1-(3-methoxy-6-(6-(6-methylpyrazin-2-yl)-1H-pyrazolo[4,3-c]pyridin-1-yl)pyridin-2-yl)piperidin-3-amine] | –
